Experimental data: patent US10556888B2, “Pyrazole compounds or salts thereof, preparation methods therefor, herbicidal compositions and use thereof” (QINGDAO KINGAGROOT CHEMICAL COMPOUNDS CO., LTD, priority 2015, dated 2020)

Tests used:
Type in all cases: in vivo
[1] = tested on: Monocotyledonous and dicotyledonous weed; assay: Post-emergence test experiment, weed control effect (Table 2); parameters: key to weed control effect, Setaria viridis (level) / weed control effect, Rorippa indica (level) / weed control effect, Abutilon theophrasti (level) / weed control effect, Echinochloa crus-galli (level) / weed control effect, Digitaria sanguinalis (level): Level 10: completely dead; Level 9: above 90% growth inhibition rate; Level 8: above 80% growth inhibition rate; Level 7: above 70% growth inhibition rate; Level 6: above 60% growth inhibition rate; Level 5: above 50% growth inhibition rate; Level 4: above 30% growth inhibition rate; Level 3: above 20% growth inhibition rate; Level 2: above 10% growth inhibition rate; Level 1: above 1-10% growth inhibition rate; Level 0: no effect; conditions: 3 weeks after spraying, greenhouse
How it was run: (§1)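 Weed and crop seeds (wheat, corn, rice, soybean, cotton, oilseed, millet, sorghum) grown in soil in greenhouse; sprayed at 2-3 leaf stage, 2-3 weeks after sowing, with compound in acetone/Tween 80/water. Effects assessed after 3 weeks further greenhouse culture.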

[2] = tested on: main crop (wheat, corn, rice, soybean, cotton, oilseed, millet and sorghum); assay: Post-emergence test experiment, main crops (Table 2); parameters: key: Level 10: completely dead; Level 9: above 90% growth inhibition rate; Level 8: above 80% growth inhibition rate; Level 7: above 70% growth inhibition rate; Level 6: above 60% growth inhibition rate; Level 5: above 50% growth inhibition rate; Level 4: above 30% growth inhibition rate; Level 3: above 20% growth inhibition rate; Level 2: above 10% growth inhibition rate; Level 1: above 1-10% growth inhibition rate; Level 0: no effect; conditions: 3 weeks after spraying, greenhouse
How it was run: as §1

Rice = assay: Transplanted rice safety evaluation; parameters: key: Level 10: completely dead; Level 9: above 90% growth inhibition rate; Level 8: above 80% growth inhibition rate; Level 7: above 70% growth inhibition rate; Level 6: above 60% growth inhibition rate; Level 5: above 50% growth inhibition rate; Level 4: above 30% growth inhibition rate; Level 3: above 20% growth inhibition rate; Level 2: above 10% growth inhibition rate; Level 1: above 1-10% growth inhibition rate; Level 0: no effect; conditions: transplanted 3 leaf stage japonica rice, application rate 500 g/ha, 21 days after treatment
Method: In addition, the rice field soil that loaded into the 1/1,000,000 ha pot was leveled to keep water storage at 3-4 cm depth. The 3 leaf stage rice (japonica rice) was transplanted at 3 cm of transplanting depth the next day. The compound of the present invention was treated by the same way after 5 days of transplantation. The fertility condition of Echinochloa, Scirpus juncoides, Bidens tripartite and Sagittaria trifolia 14 days after the treatment of the compound of the invention and the fertility condition of rice 21 days after the treatment of the compound of the invention respectively with the naked eye.

Scirpus juncoides = assay: Weed control effect evaluation in transplanted rice field; parameters: key: Level 10: completely dead; Level 9: above 90% growth inhibition rate; Level 8: above 80% growth inhibition rate; Level 7: above 70% growth inhibition rate; Level 6: above 60% growth inhibition rate; Level 5: above 50% growth inhibition rate; Level 4: above 30% growth inhibition rate; Level 3: above 20% growth inhibition rate; Level 2: above 10% growth inhibition rate; Level 1: above 1-10% growth inhibition rate; Level 0: no effect; conditions: transplanted rice field pot test, application rate 500 g/ha, 14 days after treatment
Method: (§2) Rice field soil was loaded into a 1/1,000,000 ha pot. The seeds of Echinochloa, Scirpus juncoides, Bidens tripartite and Sagittaria trifolia were sowed and gently covered with soil, then left to stand still in greenhouse in the state of 0.5-1 cm of water storage. The tuber of Sagittaria trifolia was planted in the next day or 2 days later. It was kept at 3-4 cm of water storage thereafter. The weeds were treated by dripping the WP or SC water diluents prepared according to the common preparation method of the compounds of the present invention with pipette homogeneously to achieve specified effective amount when Echinochloa, Scirpus juncoides and Bidens tripartite reached 0.5 leaf stage and Sagittaria trifolia reached the time point of primary leaf stage.
(§3) The fertility condition of Echinochloa, Scirpus juncoides, Bidens tripartite and Sagittaria trifolia 14 days after the treatment of the compound of the invention and the fertility condition of rice 21 days after the treatment of the compound of the invention respectively with the naked eye.
(§4) The seeds of Echinochloa crus-galli, Scirpus juncoides and Monochoria vaginalis were collected from Heilongjing and Jiangsu Province of China.

Monochoria vaginalis = assay: as above; parameters: key: Level 10: completely dead; Level 9: above 90% growth inhibition rate; Level 8: above 80% growth inhibition rate; Level 7: above 70% growth inhibition rate; Level 6: above 60% growth inhibition rate; Level 5: above 50% growth inhibition rate; Level 4: above 30% growth inhibition rate; Level 3: above 20% growth inhibition rate; Level 2: above 10% growth inhibition rate; Level 1: above 1-10% growth inhibition rate; Level 0: no effect; conditions: transplanted rice field pot test, application rate 500 g/ha, 14 days after treatment
Method: as §2, §3, §4

Echinochloa crus-galli = assay: as above; parameters: key: Level 10: completely dead; Level 9: above 90% growth inhibition rate; Level 8: above 80% growth inhibition rate; Level 7: above 70% growth inhibition rate; Level 6: above 60% growth inhibition rate; Level 5: above 50% growth inhibition rate; Level 4: above 30% growth inhibition rate; Level 3: above 20% growth inhibition rate; Level 2: above 10% growth inhibition rate; Level 1: above 1-10% growth inhibition rate; Level 0: no effect; conditions: transplanted rice field pot test, application rate 500 g/ha, 14 days after treatment
Method: as §2, §3, §4

| Structure (SMILES) | weed control effect, Abutilon theophrasti (level) ([1]; 120 g/ha) | weed control effect, Bidens pilosa (level) ([1]; 120 g/ha) | weed control effect, Digitaria sanguinalis (level) ([1]; 120 g/ha) | weed control effect, Echinochloa crus-galli (level) ([1]; 120 g/ha) | weed control effect, Rorippa indica (level) ([1]; 120 g/ha) | weed control effect, Setaria viridis (level) ([1]; 120 g/ha) | effect on crop, corn (level) ([2]; 120 g/ha) | effect on crop, rice (level) ([2]; 120 g/ha) | effect on crop, wheat (level) ([2]; 120 g/ha) | Rice (safety, activity level) (Rice) | Weed control effect, Scirpus juncoides (activity level) (Scirpus juncoides) | Weed control effect, Monochoria vaginalis (activity level) (Monochoria vaginalis) | Weed control effect, Echinochloa crus-galli (activity level) (Echinochloa crus-galli) | weed control effect, Abutilon theophrasti (level) ([1]; 60 g/ha) | weed control effect, Bidens pilosa (level) ([1]; 60 g/ha) | weed control effect, Digitaria sanguinalis (level) ([1]; 60 g/ha) | weed control effect, Echinochloa crus-galli (level) ([1]; 60 g/ha) | weed control effect, Rorippa indica (level) ([1]; 60 g/ha) | weed control effect, Setaria viridis (level) ([1]; 60 g/ha) | effect on crop, corn (level) ([2]; 60 g/ha) | other results |
| --- | --- | --- | --- | --- | --- | --- | --- | --- | --- | --- | --- | --- | --- | --- | --- | --- | --- | --- | --- | --- | --- |
| Cc1ccn(Cc2c(S(C)(=O)=O)ccc(C(=O)c3c(C)nn(C)c3OC(=O)c3cn(C)nc3C)c2Cl)n1 [Compound 02] | 8 (Level 8: above 80% growth inhibition rate) | 9 (Level 9: above 90% growth inhibition rate) | 2 (Level 2: above 10% growth inhibition rate) | 10 | 10 | 6 (Level 6: above 60% growth inhibition rate) | 0 | 1 (Level 1: above 1-10% growth inhibition rate) | 0 | 0 | 10 | 9 (Level 9: above 90% growth inhibition rate) | 10 |  |  |  |  |  |  |  |  |
| Cc1ccn(Cc2c(S(C)(=O)=O)ccc(C(=O)c3cnn(C)c3OC(=O)c3cn(C)nc3C)c2Cl)n1 [Compound 06] | 7 (Level 7: above 70% growth inhibition rate) | 9 (Level 9: above 90% growth inhibition rate) | 2 (Level 2: above 10% growth inhibition rate) | 10 | 10 | 6 (Level 6: above 60% growth inhibition rate) | 0 | 1 (Level 1: above 1-10% growth inhibition rate) | 0 | 1 (Level 1: above 1-10% growth inhibition rate) | 10 | 10 | 10 |  |  |  |  |  |  |  |  |
| Cc1nn(C)cc1C(=O)Oc1c(C(=O)c2ccc(S(C)(=O)=O)c(Cn3cc(Cl)cn3)c2Cl)c(C2CC2)nn1C [Compound 10] | 7 (Level 7: above 70% growth inhibition rate) | 9 (Level 9: above 90% growth inhibition rate) | 2 (Level 2: above 10% growth inhibition rate) | 10 | 10 | 7 (Level 7: above 70% growth inhibition rate) | 0 | 1 (Level 1: above 1-10% growth inhibition rate) | 0 | 1 (Level 1: above 1-10% growth inhibition rate) | 10 | 10 | 10 |  |  |  |  |  |  |  |  |
| Cc1nn(C)cc1C(=O)Oc1c(C(=O)c2ccc(S(C)(=O)=O)c(COCC3CCCO3)c2Cl)c(C)nn1C(C)C (stereo not drawn) [Compound 101] |  |  |  |  |  |  |  |  |  |  |  |  |  |  |  |  |  |  |  |  | weed control effect, Abutilon theophrasti (level) ([1]; 250 g/ha): 7 (Level 7: above 70% growth inhibition rate); weed control effect, Bidens pilosa (level) ([1]; 250 g/ha): 7 (Level 7: above 70% growth inhibition rate); weed control effect, Digitaria sanguinalis (level) ([1]; 250 g/ha): 6 (Level 6: above 60% growth inhibition rate); weed control effect, Echinochloa crus-galli (level) ([1]; 250 g/ha): 9 (Level 9: above 90% growth inhibition rate); weed control effect, Rorippa indica (level) ([1]; 250 g/ha): 10; weed control effect, Setaria viridis (level) ([1]; 250 g/ha): 7 (Level 7: above 70% growth inhibition rate); effect on crop, corn (level) ([2]; 250 g/ha): 1 (Level 1: above 1-10% growth inhibition rate); effect on crop, rice (level) ([2]; 250 g/ha): 8 (Level 8: above 80% growth inhibition rate); effect on crop, wheat (level) ([2]; 250 g/ha): 0 |
| Cn1cc(Cl)c(C(=O)Oc2c(C(=O)c3ccc(S(C)(=O)=O)c(COCC(F)F)c3Cl)cnn2C)n1 [Compound 102] |  |  |  |  |  |  |  |  |  |  |  |  |  |  |  |  |  |  |  |  | weed control effect, Abutilon theophrasti (level) ([1]; 30 g/ha): 7 (Level 7: above 70% growth inhibition rate); weed control effect, Bidens pilosa (level) ([1]; 30 g/ha): 7 (Level 7: above 70% growth inhibition rate); weed control effect, Digitaria sanguinalis (level) ([1]; 30 g/ha): 7 (Level 7: above 70% growth inhibition rate); weed control effect, Echinochloa crus-galli (level) ([1]; 30 g/ha): 10; weed control effect, Rorippa indica (level) ([1]; 30 g/ha): 10; weed control effect, Setaria viridis (level) ([1]; 30 g/ha): 6 (Level 6: above 60% growth inhibition rate); effect on crop, corn (level) ([2]; 30 g/ha): 1 (Level 1: above 1-10% growth inhibition rate); effect on crop, rice (level) ([2]; 30 g/ha): 5 (Level 5: above 50% growth inhibition rate); effect on crop, wheat (level) ([2]; 30 g/ha): 0 |
| Cc1cc(C)n(Cc2c(S(C)(=O)=O)ccc(C(=O)c3c(C)nn(C(C)C)c3OC(=O)c3nn(C)cc3Cl)c2Cl)n1 [Compound 103] | 7 (Level 7: above 70% growth inhibition rate) | 7 (Level 7: above 70% growth inhibition rate) | 2 (Level 2: above 10% growth inhibition rate) | 10 | 10 | 3 (Level 3: above 20% growth inhibition rate) | 1 (Level 1: above 1-10% growth inhibition rate) | 0 | 0 |  |  |  |  |  |  |  |  |  |  |  |  |
| CCOCc1c(S(C)(=O)=O)ccc(C(=O)c2c(CC)nn(CC)c2OC(=O)c2nn(C)cc2Cl)c1Cl [Compound 104] |  |  |  |  |  |  |  |  |  |  |  |  |  | 10 | 8 (Level 8: above 80% growth inhibition rate) | 10 | 10 | 10 | 10 | 0 | effect on crop, rice (level) ([2]; 60 g/ha): 4 (Level 4: above 30% growth inhibition rate); effect on crop, wheat (level) ([2]; 60 g/ha): 0 |
| CCc1nn(C)c(C(=O)Oc2c(C(=O)c3ccc(S(C)(=O)=O)c(COCC(F)(F)F)c3Cl)cnn2C)c1Cl [Compound 105] |  |  |  |  |  |  |  |  |  |  |  |  |  | 10 | 8 (Level 8: above 80% growth inhibition rate) | 9 (Level 9: above 90% growth inhibition rate) | 10 | 10 | 10 | 0 | effect on crop, rice (level) ([2]; 60 g/ha): 4 (Level 4: above 30% growth inhibition rate); effect on crop, wheat (level) ([2]; 60 g/ha): 0 |
| CCc1nn(C)c(C(=O)Oc2c(C(=O)c3ccc(S(C)(=O)=O)c(Cn4cccn4)c3Cl)c(C)nn2C(C)C)c1Cl [Compound 106] |  |  |  |  |  |  |  |  |  |  |  |  |  | 10 | 8 (Level 8: above 80% growth inhibition rate) | 8 (Level 8: above 80% growth inhibition rate) | 10 | 10 | 10 | 0 | effect on crop, rice (level) ([2]; 60 g/ha): 1 (Level 1: above 1-10% growth inhibition rate); effect on crop, wheat (level) ([2]; 60 g/ha): 0 |
